Biological target: T1, Recombinant human HSD17B13 enzyme (Homo sapiens, UniProt Q7Z5P4)
T1 sequence (Q7Z5P4 20-300): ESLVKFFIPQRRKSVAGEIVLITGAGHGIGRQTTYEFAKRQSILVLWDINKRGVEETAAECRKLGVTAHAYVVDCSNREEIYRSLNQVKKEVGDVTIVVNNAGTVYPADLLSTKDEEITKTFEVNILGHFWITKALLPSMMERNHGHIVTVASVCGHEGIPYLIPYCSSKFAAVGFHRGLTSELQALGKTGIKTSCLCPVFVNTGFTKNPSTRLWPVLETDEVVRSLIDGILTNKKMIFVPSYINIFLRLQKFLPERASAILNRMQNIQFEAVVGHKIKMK
Assay: HSD17b13 NAD(P)H-Glo biochemical assay
Conditions: 50 uM estradiol, 1 mM NAD+, NAD(P)H-Glo luminescence; read-out: HSD17β13 IC50
Outline: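 Recombinant human HSD17B13 in 20 mM Tris pH7.4 with 0.002% Tween-20 and 0.02% BSA was preincubated with inhibitor for 20 minutes at RT. The reaction ran 3 hours at 37° C with 50 uM estradiol and 1 mM NAD+ (final). NADH formed was detected by NAD(P)H-Glo luminescence after 1 hour at RT.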

Row | SMILES | IC50
1 | CC1(C)CCN(c2ncc(-n3nnc4cc(F)c(O)c(F)c43)cn2)CC1 [Compound 42, 1-(2-(4,4-Dimethylpiperidin-1-yl)pyrimidin-5-yl)-5,7-difluoro-1H-benzo[d][1,2,3]triazol-6-ol] | < 100 nM
2 | CC1(C)CCN(c2ccc(-n3ncc4c(C#N)c(F)c(O)cc43)cc2)CC1 [Compound 7.1, 1-(4-(4,4-Dimethylpiperidin-1-yl)phenyl)-5-fluoro-6-hydroxy-1H-indazole-4-carbonitrile] | 100 to 1000 nM
3 | CC(C)S(=O)(=O)N1CCN(c2ccc(-n3ncc4cc(F)c(O)c(F)c43)cc2)CC1 [Compound 23.9, 5,7-Difluoro-1-(4-(4-(isopropylsulfonyl)piperazin-1-yl)phenyl)-1H-indazol-6-ol] | 100 to 1000 nM
4 | CC(C)C1CCN(c2ccc(-n3ncc4cc(F)c(O)c(F)c43)cc2)CC1 [Compound 20.9, 5,7-Difluoro-1-(4-(4-isopropylpiperidin-1-yl)phenyl)-1H-indazol-6-ol] | < 100 nM
5 | CC1(C)CCN(c2ccc(-n3ncc4cc(F)c(O)nc43)cc2)CC1 [Compound 25.2, 1-(4-(4,4-Dimethylpiperidin-1-yl)phenyl)-5-fluoro-1H-pyrazolo[3,4-b]pyridin-6-ol] | 1000 to 30000 nM
6 | CCC1(CC)CN(c2ccc(-n3ncc4cc(F)c(O)c(F)c43)cc2)C1 [Compound 24, 1-(4-(3,3-Diethylazetidin-1-yl)phenyl)-5,7-difluoro-1H-indazol-6-ol] | < 100 nM
7 | CC1(CO)CN(c2ccc(-n3ncc4cc(F)c(O)c(F)c43)cc2)C1 [Compound 20.16, 5,7-Difluoro-1-(4-(3-(hydroxymethyl)-3-methylazetidin-1-yl)phenyl)-1H-indazol-6-ol] | 100 to 1000 nM
8 | CC1(C(F)(F)F)CCN(c2ccc(-n3ncc4cc(F)c(O)c(F)c43)cc2)CC1 [Compound 24.8, 5,7-Difluoro-1-(4-(4-methyl-4-(trifluoromethyl)piperidin-1-yl)phenyl)-1H-indazol-6-ol] | < 100 nM
9 | Oc1c(F)cc2cnn(-c3ccc(-c4ccc(Cl)cc4)cn3)c2c1F [Compound 18.3, 1-(5-(4-Chlorophenyl)pyridin-2-yl)-5,7-difluoro-1H-indazol-6-ol] | < 100 nM
10 | Oc1c(F)cc2cnn(-c3ccc(N4CCSCC4)cc3)c2c1F [Compound 23.4, 5,7-Difluoro-1-(4-thiomorpholinophenyl)-1H-indazol-6-ol] | < 100 nM
11 | NS(=O)(=O)c1cccc(-c2ccc(-n3ncc4cc(F)c(O)cc43)cc2)c1 [Compound 13.37, 4′-(5-Fluoro-6-hydroxy-1H-indazol-1-yl)-[1,1′-biphenyl]-3-sulfonamide] | 100 to 1000 nM
12 | NS(=O)(=O)c1ccc(-c2ccc(-n3ncc4cc(F)c(O)cc43)cc2)cc1 [Compound 13.38, 4′-(5-Fluoro-6-hydroxy-1H-indazol-1-yl)-[1,1′-biphenyl]-4-sulfonamide] | < 100 nM
13 | Oc1c(F)cc2cnn(-c3ccc(N4CCC5(CC4)COC5)cc3)c2c1F [Compound 23.25, 1-(4-(2-Oxa-7-azaspiro[3.5]nonan-7-yl)phenyl)-5,7-difluoro-1H-indazol-6-ol] | < 100 nM
14 | CC1(C)CCN(c2ccc(-n3ccc4cc(F)c(O)c(F)c43)cc2)CC1 [Compound 6.2, 1-(4-(4,4-Dimethylpiperidin-1-yl)phenyl)-5,7-difluoro-1H-indol-6-ol] | 100 to 1000 nM
15 | Oc1cccc(-c2ccc(-n3ncc4c(C(F)(F)F)c(F)c(O)cc43)cc2)c1 [Compound 4, 5-Fluoro-1-(3′-hydroxy-[1,1′-biphenyl]-4-yl)-4-(trifluoromethyl)-1H-indazol-6-ol] | 100 to 1000 nM
16 | Oc1cc2c(nnn2-c2ccc(N3CC4(CCOCC4)C3)cc2)c(Cl)c1F [Compound 40, 1-(4-(7-Oxa-2-azaspiro[3.5]nonan-2-yl)phenyl)-4-chloro-5-fluoro-1H-benzo[d][1,2,3]triazol-6-ol] | < 100 nM
17 | CS(=O)(=O)C1CN(c2ccc(-n3cnc4cc(F)c(O)c(F)c43)cc2)C1 [Compound 20.15, 5,7-Difluoro-1-(4-(3-(methylsulfonyl)azetidin-1-yl)phenyl)-1H-benzo[d]imidazol-6-ol] | 1000 to 30000 nM
18 | Oc1c(F)cc2ncn(-c3ccc(N4CC5(CCOCC5)C4)cc3)c2c1F [Compound 20.11, 1-(4-(7-Oxa-2-azaspiro[3.5]nonan-2-yl)phenyl)-5,7-difluoro-1H-benzo[d]imidazol-6-ol] | 100 to 1000 nM
19 | C[C@H]1CN(c2ccc(-n3ncc4cc(F)c(O)c(F)c43)cc2)C[C@H](C)O1 [Compound 24.9, 1-(4-((2S,6S)-2,6-Dimethylmorpholino)phenyl)-5,7-difluoro-1H-indazol-6-ol] | < 100 nM
20 | CC1CN(c2ccc(-n3ncc4cc(F)c(O)c(F)c43)cc2)CCO1 (stereo not shown) [Compound 20.4, 5,7-Difluoro-1-(4-(2-methylmorpholino)phenyl)-1H-indazol-6-ol] | < 100 nM
21 | Oc1cccc(-c2ccc(-n3ncc4c(F)c(F)c(O)c(F)c43)cc2)c1 [Compound 15.4, 4,5,7-Trifluoro-1-(3′-hydroxy-[1,1′-biphenyl]-4-yl)-1H-indazol-6-ol] | 100 to 1000 nM
22 | Oc1cc2c(cnn2-c2ccc(-c3ccccc3O)cc2)cc1F [Compound 13.2, 5-Fluoro-1-(2′-hydroxy-[1,1′-biphenyl]-4-yl)-1H-indazol-6-ol] | 100 to 1000 nM
23 | Oc1c(F)cc2cnn(-c3ccc(N4CCC(O)CC4)cc3)c2c1F [Compound 23.1, 5,7-Difluoro-1-(4-(4-hydroxypiperidin-1-yl)phenyl)-1H-indazol-6-ol] | 100 to 1000 nM

The next lines start with the values.

Row | IC50 | SMILES
24 | < 100 nM | Oc1c(F)cc2cnn(-c3ccc(C4CCCCC4)cc3)c2c1F [Compound 27.5, 1-(4-Cyclohexylphenyl)-5,7-difluoro-1H-indazol-6-ol]
25 | < 100 nM | Oc1c(F)cc2cnn(-c3ccc(C4=CCOCC4)cc3)c2c1F [Compound 27.3, 1-(4-(3,6-Dihydro-2H-pyran-4-yl)phenyl)-5,7-difluoro-1H-indazol-6-ol]
26 | < 100 nM | CC1(C)CCN(c2ccc(-n3nnc4cc(F)c(O)c(F)c43)nc2)CC1 [Compound 26.14, 1-(5-(4,4-Dimethylpiperidin-1-yl)pyridin-2-yl)-5,7-difluoro-1H-benzo[d][1,2,3]triazol-6-ol]
27 | 100 to 1000 nM | Oc1c(F)cc2nnn(-c3ccc(N4CCOC[C@@H]4c4ccccc4)cc3)c2c1F [Compound 26.29, (S)-5,7-Difluoro-1-(4-(3-phenylmorpholino)phenyl)-1H-benzo[d][1,2,3]triazol-6-ol]
28 | < 100 nM | CC1(C)CCN(c2ccc(-n3nnc4c(Cl)c(F)c(O)cc43)cc2)CC1 [Compound 40.1, 4-Chloro-1-(4-(4,4-dimethylpiperidin-1-yl)phenyl)-5-fluoro-1H-benzo[d][1,2,3]triazol-6-ol]
29 | < 100 nM | CC1(C)CC=C(c2ccc(-n3ncc4cc(F)c(O)c(F)c43)cc2)CC1 [Compound 27.2, 1-(4′,4′-Dimethyl-2′,3′,4′,5′-tetrahydro-[1,1′-biphenyl]-4-yl)-5,7-difluoro-1H-indazol-6-ol]
30 | < 100 nM | CS(=O)(=O)N1CCC(c2ccc(-n3nnc4cc(F)c(O)c(F)c43)cc2)CC1 [Compound 27.9, 5,7-Difluoro-1-(4-(1-(methylsulfonyl)piperidin-4-yl)phenyl)-1H-benzo[d][1,2,3]triazol-6-ol]
31 | 100 to 1000 nM | COc1nn(-c2ccc(N3CCC(C)(C)CC3)cc2)c2c(F)c(O)c(F)cc12 [Compound 37.1, 1-(4-(4,4-Dimethylpiperidin-1-yl)phenyl)-5,7-difluoro-3-methoxy-1H-indazol-6-ol]

Reference: patent publication US20240083853A1, “HSD17B13 INHIBITORS AND USES THEREOF” (FL2022-001, Inc., priority 2020, published 2024)
